Assay results from PMC11589483, “Preparation and anti-colon cancer effect of a novel curcumin analogue (CA8): in vivo and in vitro evaluation” (Frontiers in Pharmacology, 2024).
Where two headings read alike, the source gives them in different places.

Legend:
Caco-2 cells [1] = experiment: Cell cycle analysis (flow cytometry); format: cell-based, human; details: 4, 8, 16 μM, 24 h
Protocol: Caco-2 cells treated with CA8 at dose of 4, 8, or 16 μM/L for 24 h, they were collected, washed with PBS, and fixed in 70% ethanol overnight. The fixed cells were washed twice with PBS, treated with RNase A (10 mg/mL) and resuspended in 50 μg/mL propidium iodide for staining. Finally, the cell cycle distribution was assessed via flow cytometry (BD Biosciences, CA).

[2] = tested on: colon cancer cells Caco-2; experiment: MTT antiproliferative assay, Caco-2; format: cell-based, human; details: for SI Caco2: logarithm of ratio IC50 LO2 / IC50 cancer cells; for IC50: Homo sapiens, read-out: IC50 Caco2
Protocol: (§1) The human cancer cell lines A549, HepG2, MCF-7, Caco-2, and HeLa and the normal human liver cell line LO2 were all obtained from Shanghai Cell Bank of China. All cells were cultured in RPMI 1640 or DMEM supplemented with 10% fetal bovine serum, 100 U/mL penicillin, and 100 μg/mL streptomycin and incubated at 37°C under 5% CO2 (HEPA incubator class100 Thermo company). The medium was replaced three times a week. Cells used in all were in the exponential growth phase.
(§2) The cell inhibition rate was evaluated using the MTT assay. Briefly, cells were seeded in a 96-well plate at a density of 3–4 × 10^3 cells per well and incubated at 37°C for 24 h. The MCACs to be tested were dissolved in dimethyl sulfoxide (DMSO, Merck, Germany) and diluted to five concentrations (3.75, 7.5, 15, 30, 60 μM/L) with RPMI 1640 medium, with each dose analyzed in quadruplicate. The concentration of DMSO was always maintained below 1‰, a concentration that is nontoxic to cells. After incubation for 24 or 48 h, MTT reagent (5 mg/mL) was added to each well and the samples were incubated for 3 h at 37°C in the dark. The absorbance of formazan crystals dissolved in 150 µL of DMSO was measured at 570 nm using a microplate reader to identify the cytotoxic effect of the analogues.

[3] = tested on: normal human liver cell line LO2; experiment: MTT assay, normal liver cells LO2; format: cell-based
Protocol: as §1, §2

lung cancer cells A549 = experiment: MTT antiproliferative assay, A549; format: cell-based; details: Homo sapiens
Protocol: as §1, §2

Caco-2 cells [4] = experiment: Clonogenic assay; format: cell-based, human; details: 4, 8, or 16 μM/L, 6 h exposure
Protocol: Caco-2 cells were seeded into a 6-well plate at a density of 1 × 10^3 cells per well and incubated overnight. Then, the medium was replaced, and CA8 was added at the prescribed concentrations (4, 8, or 16 μM/L). After 6 h, the drug-containing medium was replaced with RPMI 1640 medium.
Caco-2 cells in 6-well plates were incubated for 1–2 weeks until the appearance of the colonies, followed by staining with crystal violet and incubation for 1 h at room temperature. After staining, images were captured accordingly.

liver cancer cells HepG2 = experiment: MTT antiproliferative assay, HepG2; format: cell-based; details: Homo sapiens
Protocol: as §1, §2

Caco-2 cells [5] = experiment: Apoptosis assay (Annexin V-FITC/propidium iodide flow cytometry); format: cell-based, human; details: 4, 8, 16 μM, 24 h
Protocol: The apoptotic effect of CA8 was assessed in Caco-2 cells according to the kit instructions. First, Caco-2 cells were treated with CA8 at dose of 4, 8, or 16 μM/L for 24 h. The cells were harvested and suspended in 500 μL annexin-binding buffer. Subsequently, the cells were stained with Annexin V-FITC for 15 min and then incubated with propidium iodide for 5 min at room temperature in the dark. Finally, all samples were evaluated via flow cytometry (FACS Calibur, BD, San Jose, CA, United States). The results obtained were analyzed using the FlowJo software, and the apoptotic rate was calculated.

Caco-2 cells [6] = experiment: Hoechst 33,258 staining; format: cell-based, human; details: Caco-2, 24 h
Protocol: Caco-2 cells were seeded in 6-well plates at a density of 5 × 10^5 cells per well and incubated overnight, followed by the addition of the prescribed concentration (4, 8, or 16 μM/L) of CA8. After 24 h of incubation, cells were fixed and stained with Hoechst 33,258.

Ki67 = experiment: Immunohistochemistry of tumor tissue; format: in vivo, BALB nude mice; details: Caco-2 xenograft, 100 mg/kg
KM mice = experiment: Acute toxicity experiment; format: in vivo; parameters: ALT / AST / ALP / CREA / UA / UREA: unit not given here; details: for tolerated dose: male, KM, 8 days; for ALP / ALT / AST / CREA / UA / UREA: serum, KM mice, Mean ± SE, n = 3
Protocol: All in vivo experimental protocols were approved by the animal care committee of the Southwest Medical University and conducted in strict accordance with the laboratory animal care and use of the adopted guidelines. […] Twenty-one male KM mice were obtained from the Animal Center of Southwest Medical University and subjected to 1 week of acclimatization before the experiment. Then, the mice were randomly divided into the different groups. CA8 was administered via intraperitoneal injection and oral administration to assess its safety. The oral and injection doses were 5, 50, and 300 mg/kg and 2, 10, and 50 mg/kg, respectively. The body weight of all animals was recorded every day, and their blood samples were collected to analyze relevant biochemical indicators on the 8th day of the experiment. The heart, liver, and kidney tissues of the mice were collected, embedded in paraffin, cut into slices, stained with hematoxylin and eosin (HE), and observed under a light microscope to determine potential pathological changes.

For `COc1cc(/C=C2\CN(C(C)C)C/C(=C\c3cc(OC)c(O)c(OC)c3)C2=O)cc(OC)c1O` [CA8], the “cell cycle arrest” value (Caco-2 cells [1]) was “induced G2/M phase arrest in a concentration-dependent manner”, the “SI Caco2” value ([2]; 24 h) was 0.02 and the “cytotoxicity on Caco-2 cells compared with CU” value ([2]; 48 h) was 19.2 times. For the same molecule, the “SI Caco2” value ([2]; 48 h) was 0.07, the IC50 ([2]; Caco-2, 24 h) was 4.06 ± 0.89 µM and the IC50 ([2]; Caco-2, 48 h) was 1.71 ± 0.06 µM. The IC50 ([3]; 24 h) was 4.3 ± 0.21 µM, the IC50 ([3]; 48 h) was 2 ± 0.04 µM and the IC50 (lung cancer cells A549; A549, 24 h) was 5.66 ± 0.25 µM. For the same molecule, the IC50 (lung cancer cells A549; A549, 48 h) was 9.31 ± 1.08 µM, the “Caco-2 colony formation” value (Caco-2 cells [4]) was “showed Caco-2 colony formation inhibition” and the IC50 (liver cancer cells HepG2; HepG2, 24 h) was 1.79 ± 1.32 µM. For the same molecule, the IC50 (liver cancer cells HepG2; HepG2, 48 h) was 1.84 ± 0.33 µM, the “induction of apoptosis” value (Caco-2 cells [5]) was “induced more apoptosis than CU at high and medium concentrations” and the “nuclear morphology / apoptotic cells” value (Caco-2 cells [6]) was “many apoptotic cells were observed”. The “expression of Ki67 in tumor tissues” value (Ki67) was “significantly reduced the expression of Ki67”, the “liver and kidney histopathology” value (KM mice; different doses, HE staining) was “no significant pathological damage” and the tolerated dose (KM mice; mouse, in vivo, ip) was at most 50 mg/kg. The tolerated dose (KM mice; mouse, in vivo, po) was “up to 300 mg/kg”, the “morbidity, death, behavior” value (KM mice; mouse, in vivo) was “No morbidities and deaths occurred” and the ALP (KM mice; single injection dose 2 mg/kg) was 220.33 ± 47.16. It also gave an ALT (KM mice; single injection dose 2 mg/kg) of 59.77 ± 3.00, an AST (KM mice; single injection dose 2 mg/kg) of 257.50 ± 114.60 and a CREA (KM mice; single injection dose 2 mg/kg) of 17.13 ± 3.30. It also gave a UA (KM mice; single injection dose 2 mg/kg) of 171.93 ± 1.10, a UREA (KM mice; single injection dose 2 mg/kg) of 6.84 ± 0.29 and an ALP (KM mice; single injection dose 10 mg/kg) of 175.93 ± 95.23. It also gave an ALT (KM mice; single injection dose 10 mg/kg) of 54.87 ± 3.50, an AST (KM mice; single injection dose 10 mg/kg) of 100.13 ± 28.26 and a CREA (KM mice; single injection dose 10 mg/kg) of 11.60 ± 1.60. The UA (KM mice; single injection dose 10 mg/kg) was 47.57 ± 14.59, the UREA (KM mice; single injection dose 10 mg/kg) was 6.84 ± 0.94 and the ALP (KM mice; single injection dose 50 mg/kg) was 226.47 ± 65.98. It also gave an ALT (KM mice; single injection dose 50 mg/kg) of 48.27 ± 2.77, an AST (KM mice; single injection dose 50 mg/kg) of 141.83 ± 50.47 and a CREA (KM mice; single injection dose 50 mg/kg) of 12.13 ± 1.12. The UA (KM mice; single injection dose 50 mg/kg) was 55.77 ± 13.47, the UREA (KM mice; single injection dose 50 mg/kg) was 9.19 ± 1.02 and the ALP (KM mice; single oral dose 5 mg/kg) was 208.57 ± 19.55. The ALT (KM mice; single oral dose 5 mg/kg) was 49.70 ± 5.25, the AST (KM mice; single oral dose 5 mg/kg) was 209.40 ± 69.21 and the CREA (KM mice; single oral dose 5 mg/kg) was 10.34 ± 0.87. It also gave a UA (KM mice; single oral dose 5 mg/kg) of 72.27 ± 18.54, a UREA (KM mice; single oral dose 5 mg/kg) of 6.70 ± 0.12 and an ALP (KM mice; single oral dose 50 mg/kg) of 299.77 ± 72.56. It also gave an ALT (KM mice; single oral dose 50 mg/kg) of 61.30 ± 1.30, an AST (KM mice; single oral dose 50 mg/kg) of 269.23 ± 67.81 and a CREA (KM mice; single oral dose 50 mg/kg) of 12.50 ± 2.78. It also gave a UA (KM mice; single oral dose 50 mg/kg) of 124.17 ± 19.83, a UREA (KM mice; single oral dose 50 mg/kg) of 6.53 ± 0.65 and an ALP (KM mice; single oral dose 300 mg/kg) of 266.97 ± 26.38. It also gave an ALT (KM mice; single oral dose 300 mg/kg) of 44.63 ± 11.95, an AST (KM mice; single oral dose 300 mg/kg) of 277.57 ± 160.53 and a CREA (KM mice; single oral dose 300 mg/kg) of 12.90 ± 1.61. For the same molecule, the UA (KM mice; single oral dose 300 mg/kg) was 128.03 ± 33.61, the UREA (KM mice; single oral dose 300 mg/kg) was 7.80 ± 1.27 and the “blood parameters ALT, AST, ALP, CREA, UA, UREA vs control” value (KM mice; single oral and injection doses) was “no significant difference”.
